Test system: GABAA-benzodiazepine receptor
Assay: Sleep-improving mechanism: pentobarbital sleep test with GABAA-benzodiazepine antagonist flumazenil (FLU)
Assay type: in vivo
Details: mouse; FLU 8 mg/kg i.p. 10 min before sample p.o. (DZP 0.5 mg/kg; BEE 500 mg/kg); pentobarbital 45 mg/kg 45 min later

Question: Which “effect of flumazenil (FLU) on the sleep-improving effect (sleep latency, sleep duration)” value does the source give for `CN1C(=O)CN=C(c2ccccc2)c2cc(Cl)ccc21` [DZP, diazepam] here?
Answer: had an effect

Reference: patent publication US20150320823A1, “NOVEL USE OF RICE, RICE BRAN OR RICE HULL EXTRACT AS AN HISTAMINE RECEPTOR ANTAGONIST” (KOREA FOOD RESEARCH INSTITUTE, priority 2011, published 2015)
